Test results as given in patent publication US20260285850A1, “SUBSTITUTED OXAZOLIDINONES AND IMIDAZOLINONES AS HERBICIDES” (FMC CORPORATION, priority 2023, published 2026).

Legend:
Format in all cases: in vivo
[1] = test system: horseweed (Erigeron canadensis); experiment: Test A postemergence application, visual injury rating 0-100; conditions: 10 days
Method in brief: (§1)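 Plants were grown in a loam soil-sand blend and treated with test chemical in a non-phytotoxic solvent mixture containing surfactant, either sprayed on soil preemergence or applied postemergence to 2-10 cm plants. After 10 days in a greenhouse, injury was scored visually against untreated controls, 0 meaning no effect and 100 complete control.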

corn (Zea mays) [2] = experiment: as above; conditions: 10 days
Method in brief: as §1

soybean (Glycine max) [3] = experiment: as above; conditions: 10 days
Method in brief: as §1

[4] = test system: oat, wild (wild oat, Avena fatua); experiment: as above; conditions: 10 days
Method in brief: as §1

[5] = test system: palmer (palmer amaranth, palmer pigweed, Amaranthus palmeri); experiment: as above; conditions: 10 days
Method in brief: as §1

[6] = test system: wheat (Triticum aestivum); experiment: as above; conditions: 10 days
Method in brief: as §1

[7] = test system: ryegrass, Italian (italian ryegrass, Lolium multiflorum); experiment: as above; conditions: 10 days
Method in brief: as §1

[8] = test system: blackgrass (Alopecurus myosuroides); experiment: as above; conditions: 10 days
Method in brief: as §1

[9] = test system: barnyardgrass (Echinochloa crus-galli); experiment: as above; conditions: 10 days
Method in brief: as §1

[10] = test system: galium (catchweed bedstraw, Galium aparine); experiment: as above; conditions: 10 days
Method in brief: as §1

kochia (Bassia scoparia) [11] = experiment: as above; conditions: 10 days
Method in brief: as §1

[12] = test system: ragweed (common ragweed, Ambrosia artemisiifolia); experiment: as above; conditions: 10 days
Method in brief: as §1

corn (Zea mays) [13] = experiment: Test A preemergence soil spray, visual injury rating 0-100; conditions: 10 days, 0 = no effect, 100 = complete control
Method in brief: as §1

soybean (Glycine max) [14] = experiment: as above; conditions: 10 days, 0 = no effect, 100 = complete control
Method in brief: as §1

[15] = test system: oat, wild (wild oat, Avena fatua); experiment: as above; conditions: 10 days, 0 = no effect, 100 = complete control
Method in brief: as §1

[16] = test system: palmer (palmer amaranth, palmer pigweed, Amaranthus palmeri); experiment: as above; conditions: 10 days, 0 = no effect, 100 = complete control
Method in brief: as §1

[17] = test system: wheat (Triticum aestivum); experiment: as above; conditions: 10 days, 0 = no effect, 100 = complete control
Method in brief: as §1

[18] = test system: ryegrass, Italian (italian ryegrass, Lolium multiflorum); experiment: as above; conditions: 10 days, 0 = no effect, 100 = complete control
Method in brief: as §1

[19] = test system: blackgrass (Alopecurus myosuroides); experiment: as above; conditions: 10 days, 0 = no effect, 100 = complete control
Method in brief: as §1

[20] = test system: barnyardgrass (Echinochloa crus-galli); experiment: as above; conditions: 10 days, 0 = no effect, 100 = complete control
Method in brief: as §1

kochia (Bassia scoparia) [21] = experiment: as above; conditions: 10 days, 0 = no effect, 100 = complete control
Method in brief: as §1

[22] = test system: ragweed (common ragweed, Ambrosia artemisiifolia); experiment: as above; conditions: 10 days, 0 = no effect, 100 = complete control
Method in brief: as §1

[23] = test system: ducksalad (Heteranthera limosa); experiment: Test B flooded paddy test, visual plant response rating 0-100; conditions: 250 g ai/ha, Flood, applied to paddy water, evaluated after 13 days
Method in brief: (§2)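 In this flooded assay, 2-leaf seedlings received compound through the water layer, kept at 3 cm over the soil. Plants were held 13 days in a greenhouse and then visually compared with control pots.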

[24] = test system: sedge, umbrella (small-flower umbrella sedge, Cyperus difformis); experiment: as above; conditions: 250 g ai/ha, Flood, applied to paddy water, evaluated after 13 days
Method in brief: as §2

[25] = test system: barnyardgrass (Echinochloa crusgalli); experiment: as above; conditions: 250 g ai/ha, Flood, applied to paddy water, evaluated after 13 days
Method in brief: as §2

rice (Oryza sativa) = experiment: as above; conditions: 250 g ai/ha, Flood, applied to paddy water, evaluated after 13 days
Method in brief: as §2

[26] = 31 g ai/ha, postemergence, 0 = no effect, 100 = complete control
[27] = Postemergence, 125 g ai/ha, 0 is no effect, 100 is complete control

CC1(C(=O)NC2C=CC(C(=O)OC3CCCC3)C2)CN(c2cc(Cl)cc(Cl)c2)C(=O)O1 (stereo not drawn) [Compound 59]
85: Plant response rating, Ducksalad (0 to 100 scale, 0 is no effect and 100 is complete control) [23]
0: Corn plant response rating (0-100) (corn (Zea mays) [13]; 31 g ai/ha) | Blackgrass plant response rating (0-100) ([19]; 31 g ai/ha)
98: Plant response rating, Sedge, Umbrella (0 to 100 scale, 0 is no effect and 100 is complete control) [24]
90: Corn plant response rating (0-100) (corn (Zea mays) [2]; [26]) | Soybean plant response rating (0-100) (soybean (Glycine max) [3]; [26]) | Oat, Wild plant response rating (0 to 100 scale) [4, 27] | Amaranth, Palmer plant response rating (0-100) [5, 26] | Wheat plant response rating (0-100) [6, 26] | Wheat plant response rating (0 to 100 scale) [6, 27] | Ryegrass, Italian plant response rating (0-100) [7, 26] | Ryegrass, Italian plant response rating (0 to 100 scale) [7, 27] | Barnyardgrass plant response rating (0-100) [9, 26] | Barnyardgrass plant response rating (0 to 100 scale) [9, 27] | Galium plant response rating (0-100) [10, 26] | Galium plant response rating (0 to 100 scale) [10, 27] | Kochia plant response rating (0 to 100 scale) (kochia (Bassia scoparia) [11]; [27]) | Plant response rating, Barnyardgrass (0 to 100 scale, 0 is no effect and 100 is complete control) [25]
30: Ragweed plant response rating (0-100) [12, 26] | Soybean plant response rating (0-100) (soybean (Glycine max) [14]; 31 g ai/ha) | Wheat plant response rating (0-100) ([17]; 31 g ai/ha) | Ragweed plant response rating (0-100) ([22]; 31 g ai/ha)
80: Kochia plant response rating (0-100) (kochia (Bassia scoparia) [11]; [26]) | Ragweed plant response rating (0 to 100 scale) [12, 27] | Oat, Wild plant response rating (0 to 100 scale) ([15]; 125 g ai/ha) | Ryegrass, Italian plant response rating (0 to 100 scale) ([18]; 125 g ai/ha) | Kochia plant response rating (0 to 100 scale) (kochia (Bassia scoparia) [21]; 125 g ai/ha)
10: Oat, Wild plant response rating (0-100) ([15]; 31 g ai/ha)
60: Oat, Wild plant response rating (0-100) [4, 26] | Soybean plant response rating (0 to 100 scale) (soybean (Glycine max) [14]; 125 g ai/ha) | Ryegrass, Italian plant response rating (0-100) ([18]; 31 g ai/ha) | Blackgrass plant response rating (0 to 100 scale) ([19]; 125 g ai/ha) | Barnyardgrass plant response rating (0-100) ([20]; 31 g ai/ha) | Ragweed plant response rating (0 to 100 scale) ([22]; 125 g ai/ha)
70: Horseweed plant response rating (0 to 100 scale) [1, 27] | Wheat plant response rating (0 to 100 scale) ([17]; 125 g ai/ha)
100: Corn plant response rating (0 to 100 scale) (corn (Zea mays) [2]; [27]) | Soybean plant response rating (0 to 100 scale) (soybean (Glycine max) [3]; [27]) | Amaranth, Palmer / Pigweed, Palmer plant response rating (0 to 100 scale) [5, 27] | Blackgrass plant response rating (0-100) [8, 26] | Blackgrass plant response rating (0 to 100 scale) [8, 27] | Amaranth, Palmer plant response rating (0-100) ([16]; 31 g ai/ha) | Amaranth, Palmer plant response rating (0 to 100 scale) ([16]; 125 g ai/ha) | Barnyardgrass plant response rating (0 to 100 scale) ([20]; 125 g ai/ha)
20: Horseweed plant response rating (0-100) [1, 26]
40: Kochia plant response rating (0-100) (kochia (Bassia scoparia) [21]; 31 g ai/ha)
50: Corn plant response rating (0 to 100 scale) (corn (Zea mays) [13]; 125 g ai/ha) | Plant response rating, Rice (0 to 100 scale, 0 is no effect and 100 is complete control) (rice (Oryza sativa))
